# Measurements from patent US4031226A, “N-[(1-piperidinyl)alkyl]arylcarboxamide derivatives” (Janssen Pharmaceutica N.V., priority 1976, dated 1977).
# Like-named read-outs stand apart in the source and are kept apart here.
# What was measured:
# [1] = system: apomorphine-induced phenomena: agitation and stereotypic chewing; assay: The apomorphine test in rats (anti-apomorphine activity); format: in vivo, male Wistar rats; details: Rattus norvegicus, sc, read-out: LED (lowest effective dose), anti-apomorphine activity in rats
# Experimental: The compounds of formula (I) are potent psychotropic agents and as such they can be used in the treatment of metal disorders such as, for example, personality and psycho-affective disorders and schizophrenia. The psychotropic activity of the subject compounds (I) is strongly evidenced by the experimental data obtained in the apomorphine test in rats, a test which is indicative for central nervous system depressant activity. The test was carried out following the procedure described hereafter and the experimental data which were obtained are summarized in table V wherein the compound numbers refer to the corresponding structures in the Tables I to IV.
# The apomorphine test in rats
# The experimental animals used in this test were adult male Wistar rats (weight 240 ± 10 g.). After an overnight fast, the animals were treated subcutaneously (1ml/100 g) with an aqueous solution of the compound under investigation and put into isolated observation cages.
# [2] = system: apomorphine-induced vomiting; assay: block of apomorphine-induced vomiting in dogs (antiemetic activity); format: in vivo, beagle dogs; details: Canis lupus familiaris, sc, read-out: ED50 (dose which protects 50% of the animals from emesis)
# Experimental: The method used is described previously by P. A. J. Janssen and C. J. E. Niemegeers in: Arzneim. -Forsch. (Drug Res), 9, 765-767 (1959).
# The compounds listed below were administered subcutaneously to beagle dogs at different doses and the animals were challenged 1 hour thereafter with a standard dose of 0.31 mg/kg (subcutaneous) of apomorphine.
# The tables below give the ED50 values of a number of the compounds under consideration. As used herein, the ED50 value represents the dose which protects 50% of the animals from emesis.
# [3] = 30 min before 1.25 mg/kg i.v. apomorphine hydrochloride, observed over 1 hour, Fisher exact probability test
# [4] = beagle dogs, challenged 1 hour thereafter with 0.31 mg/kg s.c. apomorphine
Structure (SMILES),"minimal effective dose [1, 3]","ED50 [2, 4]",ED50 ([2]; 1 h),minimal effective dose [1]
CC(=O)Nc1cc(F)ccc1C(=O)NCCN1CCC(n2c(=O)[nH]c3ccccc32)CC1 [Compound 37],10 mg/kg,0.04 mg/kg,–,–
O=C(NCCN1CCC(n2c(=O)[nH]c3ccccc32)CC1)c1ccc(F)cc1[N+](=O)[O-],–,0.5 mg/kg,–,–
O=C(NCCN1CCC2(CC1)C(=O)NCN2c1ccccc1)c1cccs1,–,–,0.45 mg/kg,–
O=C(NCCN1CCC2(CC1)C(=O)NCN2c1ccc(F)cc1)c1ccccc1[N+](=O)[O-],–,–,0.12 mg/kg,–
O=C(NCCN1CCC(n2c(=O)[nH]c3cc(Cl)ccc32)CC1)c1ccc(F)cc1 [Compound 31],–,–,0.08 mg/kg,5 mg/kg
Nc1cc(F)ccc1C(=O)NCCN1CCC(n2c(=O)[nH]c3ccccc32)CC1 [Compound 33],5 mg/kg,0.03 mg/kg,–,–
O=C(NCCN1CCC2(CC1)C(=O)NCN2c1ccccc1)c1ccc(Cl)cc1,–,–,0.8 mg/kg,–
O=C(NCCN1CCC2(CC1)C(=O)NCN2c1ccccc1)c1ccccc1F [Compound 16],–,–,0.25 mg/kg,1.25 mg/kg
O=C(NCCN1CCC2(CC1)C(=O)NCN2c1ccc(F)cc1)c1ccc(F)cc1Cl [Compound 9],–,–,0.002 mg/kg,0.63 mg/kg
O=C(NCCN1CCC(n2c(=O)[nH]c3ccccc32)CC1)c1ccccc1Cl [Compound 34],5 mg/kg,1.5 mg/kg,–,–
Cc1ccccc1C(=O)NCCN1CCC2(CC1)C(=O)NCN2c1ccccc1 [Compound 6],–,–,0.1 mg/kg,2.5 mg/kg
CC(=O)Nc1cc(F)ccc1C(=O)NCCN1CCC2(CC1)C(=O)NCN2c1ccc(F)cc1 [Compound 25],–,–,0.07 mg/kg,5 mg/kg
O=C(NCCN1CCC(n2c(=O)[nH]c3ccccc32)CC1)c1ccccc1,–,0.2 mg/kg,–,–
O=C(NCCN1CCC(n2c(=O)[nH]c3ccccc32)CC1)c1ccc(F)cc1,–,0.12 mg/kg,–,–
Nc1ccccc1C(=O)NCCN1CCC2(CC1)C(=O)NCN2c1ccc(F)cc1 [Compound 23],–,–,0.008 mg/kg,2.5 mg/kg
Nc1ccccc1C(=O)NCCN1CCC(n2c(=O)[nH]c3cc(Cl)ccc32)CC1,–,0.45 mg/kg,–,–
O=C(NCCN1CCC(n2c(=O)[nH]c3ccccc32)CC1)c1ccccc1F [Compound 27],5 mg/kg,0.5 mg/kg,–,–
Cn1cccc1C(=O)NCCN1CCC2(CC1)C(=O)NCN2c1ccc(F)cc1 [Compound 24],–,–,0.25 mg/kg,10 mg/kg
O=C(NCCN1CCC2(CC1)C(=O)NCN2c1ccccc1)c1ccc(F)cc1Cl [Compound 21],–,–,0.015 mg/kg,2.5 mg/kg
O=C(NCCN1CC=C(n2c(=O)[nH]c3ccccc32)CC1)c1ccc(F)cc1,–,0.25 mg/kg,–,–

Structure (SMILES),"minimal effective dose [1, 3]","ED50 [2, 4]",ED50 ([2]; 1 h),minimal effective dose [1]
"Cl.Nc1cc(F)ccc1C(=O)NCCN1CCC2(CC1)C(=O)NCN2c1ccccc1.O [Compound 7, 2-amino-4-fluoro-N-[2-(4-oxo-1-phenyl-1,3,8-triazaspiro[4,5]dec-8-yl)ethyl]benzamide hydrochloride hydrate]",–,–,0.004 mg/kg,2.5 mg/kg
O=C(NCCN1CCC2(CC1)C(=O)NCN2c1ccc(F)cc1)c1ccc(F)cc1 [Compound 8],–,–,0.015 mg/kg,10 mg/kg
O=C(NCCN1CCC2(CC1)C(=O)NCN2c1ccccc1)c1ccccc1Cl [Compound 3],–,–,0.06 mg/kg,0.31 mg/kg
Cc1ccccc1C(=O)NCCN1CCC(n2c(=O)[nH]c3ccccc32)CC1,–,0.25 mg/kg,–,–
COc1ccc(C(=O)NCCN2CCC3(CC2)C(=O)NCN3c2ccccc2)cc1,–,–,0.5 mg/kg,–
"Nc1ccccc1C(=O)NCCN1CCC(n2c(=O)[nH]c3ccccc32)CC1 [Compound 36, 2-amino-N-{2-[4-(2,3-dihydro-2-oxo-1H-benzimidazol-1-yl)-1-piperidinyl]ethyl}benzamide hemihydrate]",–,0.1 mg/kg,–,–
O=C(NCCN1CCC2(CC1)C(=O)NCN2c1ccccc1)c1ccc(F)cc1 [Compound 2],–,–,0.06 mg/kg,5 mg/kg
O=C(NCCN1CCC2(CC1)C(=O)NCN2c1ccccc1)c1ccccc1,–,–,0.1 mg/kg,–
O=C(NCCN1CCC2(CC1)C(=O)NCN2c1ccc(F)cc1)c1ccccc1O [Compound 11],–,–,0.2 mg/kg,10 mg/kg
O=C(NCCN1CCC2(CC1)C(=O)NCN2c1ccc(F)cc1)c1ccccc1Cl [Compound 14],–,–,0.004 mg/kg,0.63 mg/kg
N#CCCn1c(=O)n(C2CCN(CCNC(=O)c3ccc(F)cc3)CC2)c2ccccc21,–,0.5 mg/kg,–,–
CC(=O)Nc1cc(F)ccc1C(=O)NCCN1CCC(n2c(=O)[nH]c3cc(Cl)ccc32)CC1 [Compound 38],10 mg/kg,0.06 mg/kg,–,–
O=C(NCCN1CCC2(CC1)C(=O)NCN2c1ccccc1)c1cccc(Cl)c1,–,–,0.63 mg/kg,–
O=C(NCCN1CCC2(CC1)C(=O)NCN2c1ccc(F)cc1)c1ccc(F)cc1[N+](=O)[O-],–,–,0.03 mg/kg,–
O=C(NCCN1CCC(n2c(=O)[nH]c3cc(Cl)ccc32)CC1)c1ccc(F)cc1[N+](=O)[O-],–,0.25 mg/kg,–,–
O=C(NCCN1CCC2(CC1)C(=O)NCN2c1ccccc1)c1ccc(F)cc1[N+](=O)[O-],–,–,0.25 mg/kg,–
O=C(NCCN1CCC2(CC1)C(=O)NCN2c1ccccc1)c1ccccc1Br [Compound 4],–,–,0.25 mg/kg,2.5 mg/kg
O=C(NCCN1CCC(n2c(=O)[nH]c3cc(Cl)ccc32)CC1)c1ccc(F)cc1Cl [Compound 32],1.25 mg/kg,0.03 mg/kg,–,–
"Cl.Nc1cc(F)ccc1C(=O)NCCN1CCC2(CC1)C(=O)NCN2c1ccc(F)cc1.O [Compound 20, 2-amino-4-fluoro-N-{2-[1-(4-fluorophenyl)-4-oxo-1,3,8-triazaspiro[4,5]dec-8-yl]ethyl}benzamide hydrochloride hydrate]",–,–,0.002 mg/kg,5 mg/kg
Nc1cc(F)ccc1C(=O)NCCN1CCC(O)(c2ccc(Cl)cc2)CC1 [Compound 40],–,–,0.7 mg/kg,5 mg/kg
